Measurements as given in PubChem BioAssay (NCI).
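These data come from cells grown in 96-well plates and exposed to compound for 48 hours at five concentrations. TGI: total growth inhibition.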 Where a SMILES comes first, the peptide text is derived from it. Peptide text beside a SMILES is read from it. The star is where a group is joined. * marks the point of attachment. X34 = O=C(c1ccc(-c2ccc(Cl)cc2Cl)o1)*; Cbz = O=C(OCc1ccccc1)*

Tests used:
Experiment in all cases: growth of human tumour cells (NCI), 48 h
786-0 renal = test system: 786-0 renal
A498 renal = test system: A498 renal
BT-549 breast = test system: BT-549 breast
CCRF-CEM leukemia = test system: CCRF-CEM leukemia
HCT-15 colon = test system: HCT-15 colon
HL-60(TB) leukemia = test system: HL-60(TB) leukemia
K-562 leukemia = test system: K-562 leukemia
M14 melanoma = test system: M14 melanoma
MALME-3M melanoma = test system: MALME-3M melanoma
MCF7 breast = test system: MCF7 breast
MDA-MB-435 = test system: MDA-MB-435
NCI-H226 lung = test system: NCI-H226 lung
OVCAR-4 ovarian = test system: OVCAR-4 ovarian
SK-OV-3 ovarian = test system: SK-OV-3 ovarian
SN12C renal = test system: SN12C renal
SNB-75 CNS = test system: SNB-75 CNS
SW-620 colon = test system: SW-620 colon
U251 CNS = test system: U251 CNS
HOP-62 NSCLC = test system: HOP-62 NSCLC
OVCAR-3 ovarian = test system: OVCAR-3 ovarian

Row | SMILES | TGI (786-0 renal) | TGI (A498 renal) | TGI (BT-549 breast) | TGI (CCRF-CEM leukemia) | TGI (HCT-15 colon) | TGI (HL-60(TB) leukemia) | TGI (K-562 leukemia) | TGI (M14 melanoma) | TGI (MALME-3M melanoma) | TGI (MCF7 breast) | TGI (MDA-MB-435) | TGI (NCI-H226 lung) | TGI (OVCAR-4 ovarian) | TGI (SK-OV-3 ovarian) | TGI (SN12C renal) | TGI (SNB-75 CNS) | TGI (SW-620 colon) | TGI (U251 CNS) | TGI (HOP-62 NSCLC) | TGI (OVCAR-3 ovarian)
1 | O=C(c1ccccc1)N(CCCCNC(=O)C(F)(F)F)CCCNC(=O)C(F)(F)F | > 100 µM | > 100 µM | > 100 µM | > 100 µM | > 100 µM | > 100 µM | > 100 µM | > 100 µM | > 100 µM | > 100 µM | > 100 µM | > 100 µM | > 100 µM | > 100 µM | > 100 µM | > 100 µM | > 100 µM | > 100 µM | – | –
2 | COn1oc(=O)c2ccccc21 | > 100 µM | > 100 µM | > 100 µM | > 100 µM | > 100 µM | > 100 µM | > 100 µM | > 100 µM | > 100 µM | > 100 µM | > 100 µM | > 100 µM | > 100 µM | > 100 µM | > 100 µM | > 100 µM | > 100 µM | > 100 µM | > 100 µM | > 100 µM
3 | CC(C)=NOC(=O)OC[C@H]1O[C@@H](n2cnc3c(N)ncnc32)C(O)C1O (some centres not stated) | > 100 µM | > 100 µM | > 100 µM | > 100 µM | > 100 µM | > 100 µM | > 100 µM | > 100 µM | > 100 µM | > 100 µM | > 100 µM | > 100 µM | > 100 µM | > 100 µM | > 100 µM | > 100 µM | > 100 µM | > 100 µM | > 100 µM | > 100 µM
4 | c1ccc(SCCc2ccncc2)cc1 | > 100 µM | > 100 µM | > 100 µM | > 100 µM | > 100 µM | > 100 µM | > 100 µM | > 100 µM | > 100 µM | > 100 µM | > 100 µM | > 100 µM | > 100 µM | > 100 µM | > 100 µM | > 100 µM | > 100 µM | > 100 µM | > 100 µM | > 100 µM
5 | CCOC(=O)C(NC(=O)c1ccccc1)(c1ccc(S(=O)(=O)Nc2onc(C)c2C)cc1)C(F)(F)F (configuration not stated) | > 100 µM | – | > 100 µM | > 100 µM | > 100 µM | > 100 µM | > 100 µM | > 100 µM | > 100 µM | > 100 µM | > 100 µM | > 100 µM | > 100 µM | > 100 µM | > 100 µM | > 100 µM | > 100 µM | > 100 µM | > 100 µM | > 100 µM
6 | O=S1(=O)c2ccccc2N2C(c3ccccc3)=NOC2(c2ccccc2)CC1c1ccc(Br)cc1 (configuration not stated) | > 100 µM | > 100 µM | > 100 µM | > 100 µM | > 100 µM | > 100 µM | > 100 µM | > 100 µM | > 100 µM | > 100 µM | > 100 µM | > 100 µM | > 100 µM | > 100 µM | > 100 µM | > 100 µM | > 100 µM | > 100 µM | > 100 µM | > 100 µM
7 | COc1ccc2nc3cc([N+](=O)[O-])ccc3c(Nc3ccc(S(=O)(=O)Nc4ncccn4)cc3)c2c1 | > 100 µM | > 81.3 µM | > 100 µM | > 100 µM | > 100 µM | > 100 µM | > 88.2 µM | > 100 µM | > 100 µM | > 100 µM | > 100 µM | > 100 µM | > 100 µM | > 100 µM | > 100 µM | > 100 µM | > 100 µM | > 100 µM | > 100 µM | > 100 µM
8 | CC[C@]1(Cc2ccc(OC)c(OC)c2)C2CC(C(=O)OC)ON2O[C@H](OCc2ccccc2)[C@@H]1OC(C)=O (some centres not stated) | > 100 µM | > 100 µM | > 100 µM | > 100 µM | > 100 µM | 66.1 µM | > 100 µM | > 100 µM | > 100 µM | > 100 µM | > 100 µM | > 100 µM | > 100 µM | > 100 µM | > 100 µM | > 100 µM | > 100 µM | > 100 µM | > 100 µM | > 100 µM
9 | Cc1ccc2nc(CN(CCO)CCO)cc(=O)n2c1 | > 100 µM | – | > 100 µM | > 100 µM | > 100 µM | > 100 µM | > 100 µM | > 100 µM | > 100 µM | > 100 µM | > 100 µM | > 100 µM | > 100 µM | > 100 µM | > 100 µM | > 100 µM | > 100 µM | > 100 µM | > 100 µM | > 100 µM
10 | COC(=O)C(CC(C)C)NC(=O)C(Cc1ccccc1)NC(=O)C1CCCN1C(=O)C(CO)NC(=O)c1ccc(-c2ccc(Cl)cc2Cl)o1 (configuration not stated) (X34-SPFL-OMe; configuration not given here) | 56.9 µM | 76.5 µM | 75.7 µM | > 100 µM | 72.6 µM | 69.6 µM | 89.2 µM | 49 µM | > 100 µM | > 100 µM | 90.3 µM | 44.9 µM | > 100 µM | 25.7 µM | 89.9 µM | 88.8 µM | > 100 µM | 55.9 µM | – | –
11 | CCOC(=O)[C@@]1(C(C)=O)CC(C)=C(C)C[S@]1=O | > 100 µM | > 100 µM | > 100 µM | – | > 100 µM | – | > 100 µM | > 100 µM | > 100 µM | > 100 µM | > 100 µM | > 100 µM | > 100 µM | > 100 µM | > 100 µM | > 100 µM | > 100 µM | > 100 µM | > 100 µM | > 100 µM
12 | COC(=O)C(CC(C)C)NC(=O)C(CCCN=C(N)N)NC(=O)OCc1ccccc1 (stereo not drawn) (Cbz-Arg-Leu-OMe; configuration not given here) | > 100 µM | – | > 100 µM | > 100 µM | > 100 µM | > 100 µM | > 100 µM | > 100 µM | > 100 µM | > 100 µM | > 100 µM | > 100 µM | > 100 µM | > 100 µM | > 100 µM | > 100 µM | > 100 µM | > 100 µM | > 100 µM | > 100 µM
13 | COc1ccc2c(=O)c3c([nH]c2c1)OCC3=O | > 100 µM | > 100 µM | > 100 µM | > 100 µM | > 100 µM | > 100 µM | > 100 µM | > 100 µM | – | > 100 µM | > 100 µM | > 100 µM | > 100 µM | > 100 µM | – | > 100 µM | > 100 µM | > 100 µM | > 100 µM | –
14 | O=C(O)/C=C/c1ccc(OS(=O)(=O)O)cc1 | > 100 µM | > 100 µM | > 100 µM | – | > 100 µM | > 100 µM | > 100 µM | > 100 µM | > 100 µM | > 100 µM | > 100 µM | > 100 µM | > 100 µM | > 100 µM | > 100 µM | > 100 µM | > 100 µM | > 100 µM | > 100 µM | > 100 µM
15 | O=C1NC(=NCc2ccc(F)cc2)N/C1=C\c1ccccc1Cl | 24 µM | 34 µM | 56.8 µM | – | 71.2 µM | 36.5 µM | > 100 µM | 31.6 µM | 41.8 µM | 54.8 µM | 43.9 µM | 69.3 µM | 74.3 µM | 63.2 µM | 29.6 µM | 26.6 µM | 31.1 µM | 30.4 µM | 35.3 µM | 32.6 µM
16 | COCN1C(=N)C(C(=O)OC(C)(C)C)=C2C=C(O)C=CC21C (configuration not stated) | 24.7 µM | 36.9 µM | 12.8 µM | 50.7 µM | 27.5 µM | 83.3 µM | > 100 µM | 29.5 µM | 21.3 µM | 22.9 µM | 27.4 µM | 30.6 µM | 26.6 µM | 84 µM | 73.9 µM | 33.6 µM | 17.5 µM | 30.6 µM | 75.2 µM | –
17 | Cc1c(C(=O)Nc2ccccc2)nnn1-c1ccnc2cc(C(F)(F)F)ccc12 | > 100 µM | > 100 µM | > 100 µM | 81.5 µM | > 100 µM | 77.7 µM | > 100 µM | > 100 µM | > 100 µM | > 100 µM | > 100 µM | > 100 µM | > 100 µM | > 100 µM | > 100 µM | > 100 µM | > 100 µM | > 100 µM | – | > 100 µM
18 | Cc1cn(C2CC(N=[N+]=[N-])C(CO)O2)c(=O)n(CCCCBr)c1=O (configuration not stated) | > 100 µM | > 100 µM | > 100 µM | > 100 µM | > 100 µM | – | > 100 µM | > 100 µM | > 100 µM | > 100 µM | > 100 µM | > 100 µM | > 100 µM | > 100 µM | > 100 µM | > 100 µM | > 100 µM | 44.6 µM | > 100 µM | > 100 µM
19 | Cc1nc(C)c(N2CCN(S(N)(=O)=O)CC2)c(=O)[nH]1 | > 100 µM | > 100 µM | > 100 µM | > 100 µM | > 100 µM | > 100 µM | > 100 µM | > 100 µM | > 100 µM | > 100 µM | > 100 µM | > 100 µM | > 100 µM | > 100 µM | > 100 µM | – | > 100 µM | > 100 µM | > 100 µM | > 100 µM
